Bridge positions count the residues as written; N and C are the ends. Peptide text beside a SMILES is read from it.
Assays:
[1] = system: CD206; conditions: recognition moiety for CD206; cited from earlier work
[2] = system: orthotopic 4T1 tumors; assay: In vivo photodynamic therapy / treatment in orthotopic 4T1; design: species or system mouse; conditions: 30 nmoles i.p., no irradiation, compared with irradiated MACTIDE-V
[3] = system: mouse bone marrow-derived macrophages (BMDMs); assay: Flow cytometry of BMDM markers; type: cell-based; conditions: Balb/C BMDMs, 48 h after treatment, not statistically significant
[4] = system: orthotopic 4T1.2 tumors; assay: MACTIDE-V monotherapy in orthotopic 4T1.2; type: in vivo, mouse; conditions: for CD8+ T cell density (mIHC): n=6 mice/group
[5] = molecular target: T1, human recombinant CD206 (Homo sapiens, UniProt P22897); assay: Quartz Crystal Microbalance; type: binding; conditions: QCM, PAH/CD206 multilayer
T1 sequence (P22897 19-1456): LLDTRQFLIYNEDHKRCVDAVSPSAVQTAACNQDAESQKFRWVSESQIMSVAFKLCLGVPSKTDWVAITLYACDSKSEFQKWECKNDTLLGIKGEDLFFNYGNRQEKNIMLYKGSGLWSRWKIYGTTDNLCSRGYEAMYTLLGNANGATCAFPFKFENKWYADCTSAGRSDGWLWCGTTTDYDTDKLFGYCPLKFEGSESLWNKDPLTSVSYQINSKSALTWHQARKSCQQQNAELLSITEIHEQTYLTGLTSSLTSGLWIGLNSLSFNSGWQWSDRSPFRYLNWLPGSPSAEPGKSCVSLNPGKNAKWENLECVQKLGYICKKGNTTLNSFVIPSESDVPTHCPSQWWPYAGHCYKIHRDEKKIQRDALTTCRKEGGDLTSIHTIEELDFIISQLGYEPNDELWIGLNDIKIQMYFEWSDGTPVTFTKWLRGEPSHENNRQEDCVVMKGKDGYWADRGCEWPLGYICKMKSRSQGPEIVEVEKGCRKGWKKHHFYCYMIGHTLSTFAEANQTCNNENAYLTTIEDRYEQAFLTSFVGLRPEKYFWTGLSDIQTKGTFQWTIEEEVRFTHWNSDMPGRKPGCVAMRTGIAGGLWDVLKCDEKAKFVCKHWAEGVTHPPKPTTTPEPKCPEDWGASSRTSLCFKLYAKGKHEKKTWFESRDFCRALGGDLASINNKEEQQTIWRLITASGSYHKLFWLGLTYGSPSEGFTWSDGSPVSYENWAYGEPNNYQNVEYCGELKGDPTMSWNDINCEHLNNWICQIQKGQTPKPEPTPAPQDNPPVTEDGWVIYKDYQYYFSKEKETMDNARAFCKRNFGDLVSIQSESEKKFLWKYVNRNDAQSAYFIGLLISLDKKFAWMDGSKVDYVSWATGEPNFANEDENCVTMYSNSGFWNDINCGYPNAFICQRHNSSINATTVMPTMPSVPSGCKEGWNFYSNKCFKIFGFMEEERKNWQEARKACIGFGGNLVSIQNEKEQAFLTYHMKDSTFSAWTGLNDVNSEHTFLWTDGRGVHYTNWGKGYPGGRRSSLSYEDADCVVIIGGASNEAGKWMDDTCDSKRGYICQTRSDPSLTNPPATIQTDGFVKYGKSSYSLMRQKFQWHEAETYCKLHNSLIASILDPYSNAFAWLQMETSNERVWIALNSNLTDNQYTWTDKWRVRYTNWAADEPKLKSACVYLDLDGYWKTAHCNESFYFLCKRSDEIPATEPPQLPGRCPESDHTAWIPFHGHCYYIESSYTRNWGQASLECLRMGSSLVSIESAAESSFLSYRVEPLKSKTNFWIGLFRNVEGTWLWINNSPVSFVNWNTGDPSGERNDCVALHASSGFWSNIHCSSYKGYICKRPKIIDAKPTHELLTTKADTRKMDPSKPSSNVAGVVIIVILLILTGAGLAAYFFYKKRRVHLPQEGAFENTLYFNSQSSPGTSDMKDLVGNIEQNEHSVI

[6] = system: mouse bone marrow-derived macrophages (BMDMs); assay: Phagocytosis assay; type: cell-based; conditions: 10 µM 4 h, washed, 48 h follow-up, relative to MACTIDE and untreated
[7] = tumor cell suspensions, n=4 per group

Molecule: OC[C@H]1OC(O)[C@@H](O)[C@@H](O)[C@@H]1O (stereo partly drawn) [mannose]
- affinity of mannose [1]: low millimolar range

Molecule: Vert-Ahx-G(CTKSIPPIC)SPGAK-OH (disulfide) [MACTIDE-V]
- body weight, non-irradiated (-) [2]: less effect on body weight
- viability and differentiation of BMDMs [3]: slightly affected
- CD8+ T cell density (mIHC) [4]: trend of increased CD8^+ T cell density
- percentage of CD206+ cells in tumor (flow cytometry) [4, 7]: did not reduce
- polymorphonuclear (PMN) or TAM/monocyte cell populations (flow cytometry) [4, 7]: no effects

Molecule: CC[C@H](C)[C@@H]1NC(=O)[C@@H]2CCCN2C(=O)[C@@H]2CCCN2C(=O)[C@H]([C@@H](C)CC)NC(=O)[C@H](CO)NC(=O)[C@H](CCCCN)NC(=O)[C@H]([C@@H](C)O)NC(=O)[C@@H](NC(=O)CN)CSSC[C@@H](C(=O)N[C@@H](CO)C(=O)N2CCC[C@H]2C(=O)NCC(=O)N[C@@H](C)C(=O)N[C@@H](CCCCN)C(=O)O)NC1=O [MACTIDE] (H-GCTKSIPPICSPGAK-OH; disulfide 2-10)
- dissociation upon washing with PBS [5]: incompletely and slowly dissociated
- phagocytosis of fluorescent E. coli particles [6]: no effects

Molecule: Vert-Ahx-AKPCGS-OH [CtrlPep-V, reference compound]
- CD8+ T cell density (mIHC) [4]: trend of increased CD8^+ T cell density

— article doi:10.1101/2024.08.12.607575v1 (bioRxiv, 2024)
